Results on six compounds are retold here after article PMC10880116, “Identification of potential anti-inflammatory components in Moutan Cortex by bio-affinity ultrafiltration coupled with ultra-performance liquid chromatography mass spectrometry” (Frontiers in Pharmacology, 2024).

Structures are written as SMILES.

Series [1] addresses T1, COX-2 (Homo sapiens, UniProt P35354).
T1 sequence (P35354 18-604): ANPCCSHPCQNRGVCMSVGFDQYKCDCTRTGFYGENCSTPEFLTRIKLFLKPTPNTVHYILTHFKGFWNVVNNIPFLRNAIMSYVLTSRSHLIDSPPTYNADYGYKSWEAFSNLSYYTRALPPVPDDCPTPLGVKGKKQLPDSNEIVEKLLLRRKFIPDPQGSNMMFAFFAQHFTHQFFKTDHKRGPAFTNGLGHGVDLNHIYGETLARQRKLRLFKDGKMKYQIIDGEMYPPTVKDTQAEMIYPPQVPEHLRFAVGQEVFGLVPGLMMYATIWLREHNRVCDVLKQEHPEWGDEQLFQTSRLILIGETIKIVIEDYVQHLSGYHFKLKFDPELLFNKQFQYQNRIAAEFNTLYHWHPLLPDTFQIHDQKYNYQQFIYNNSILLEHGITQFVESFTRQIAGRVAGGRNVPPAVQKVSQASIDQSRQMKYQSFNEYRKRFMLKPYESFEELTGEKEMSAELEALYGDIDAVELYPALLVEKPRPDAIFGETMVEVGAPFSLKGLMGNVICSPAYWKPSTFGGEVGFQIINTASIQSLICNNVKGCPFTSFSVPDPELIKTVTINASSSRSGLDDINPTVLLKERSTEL
Description: COX-2 inhibitory activity (COX-2 Inhibitor Screening Kit, fluorescence).
Description: In this experiment, the inhibitory effect was determined by using COX-2 Inhibitor Screening Kits. A 96-well black plate was employed, where COX-2 cofactor working solution (5 μL), COX-2 assay buffer (75 μL), test solution (5 μL), and COX-2 working solution (5 uL) were mixed and incubated for 10 min at 37°C in the dark. Then 5 μL of probe solution, together with 5 μL of COX-2 substrate solution, was added immediately. After a 37°C incubation in the dark for another 5 min, the fluorescence value was determined at an excitation wavelength of 560 nm and emission wavelength of 590 nm. […] Besides, COX-2 Assay Buffer was used in the blank control group to replace COX-2 working solution. MC extract or potential inhibitors were dissolved with DMSO as the test solution in the sample groups.
Where, F1, F2, and F3 respectively indicate the fluorescence value of the three groups—100% enzyme activity control group, sample group and blank control group.

The test system of a further series is RAW264.7 cells. The series is described as follows: Cell viability assay (MTT). The format is cell-based, mouse. As to conditions: 12 h. As for the experimental part: RAW264.7 cells originated from mouse macrophage cell line were purchased from the American Type Culture Collection. DMEM medium containing 5% fetal bovine serum and 1% Penicillin G Streptomycin was used to culture the cells under 37°C in a humidified atmosphere of 5% CO2.
Then DEME with 20% MTT solution was added, followed by a 37°C incubation for extra 4 h. After the supernatant was removed, DMSO was added to dissolve the insoluble formazan product. The optical density was measured by a microplate reader at 490 nm. In this experiment, the formula used to calculate cell viability was as follows: Cell viability %=ODexperimental group– ODblank group/ODcontrol group– ODblank group×100%

The target of series [2] is T1, COX-2. The note with it: 20 μM, mixture of positive and negative control, affinity ultrafiltration.
Description: An experimental group and inactivated enzyme group were set up in this study for comparison. 40 μL of 100 mg/mL MC extract as well as 280 μL of COX-2 (100 U/mL) was transferred to EP tube in the experimental group, in contrast to the control group where 280 μL of inactivated COX-2 (boiled in the water bath for 30 min) was used as the substitute of the activated enzyme. The tubes from both groups were incubated at 37°C in the dark for 40 min, aiming to create an optimal condition under which the potentially suitable ligands would completely combined with the enzyme. A centrifugal filter was employed for ultrafiltration at 15000 × g for 15 min. Afterwards, 300 μL of PBS was added to the samples, and the unbound small molecules were removed by 15000 × g centrifugation for 15 min. […]
UPLC-Q-Exactive-Orbitrap-MS was performed to analyze the compounds in the filtrate using Thermo Scientific Orbitrap Fusion Tribrid Mass Spectrometer (Thermo Fisher Scientific, United States) and Ultimate 3,000 Ultra-performance liquid chromatograph, at the same time with Waters ACQUITY UPLC BEH RP18 (2.1 mm × 100 mm, 1.7 μm) employed for chromatographic analysis. […] The measurements were read at the detection wavelength of 254 nm. […] By comparing peak areas of two groups, specific ligands binding to COX-2 were determined. […]

Regarding `O=C(O)c1cc(O)c(O)c(O)c1` [Gallic acid], the IC50 at COX-2 [1] turned out to be 1520 µM. Moreover, the “Concentration exhibiting no cytotoxicity against RAW264.7 cells” value (from here on “Concentration exhibiting no cytotoxicity”) with RAW264.7 cells (MTT) was no more than 250 µM. Compound `C[C@@]12C[C@@]3(O)O[C@@H](O1)[C@]1(COC(=O)c4ccccc4)[C@H]3C[C@@]12O[C@@H]1O[C@H](COC(=O)c2cc(O)c(O)c(O)c2)[C@@H](O)[C@H](O)[C@H]1O` [Galloylpaeoniflorin] displayed an IC50 on COX-2 [1] of 6.68 ± 1.29 µM. For the same compound, the “Concentration exhibiting no cytotoxicity” value in the series with RAW264.7 cells (MTT) is no more than 100 µM. In the case of `COC(=O)c1cc(O)c(O)c(O)c1` [Methyl gallate], inhibition on COX-2 [1] was half-maximal at 12.1 µM (IC50). The “Concentration exhibiting no cytotoxicity” value with RAW264.7 cells (MTT) is no more than 10 µM. On to `O=C(OC[C@H]1O[C@@H](OC(=O)c2cc(O)c(O)c(O)c2)[C@H](OC(=O)c2cc(O)c(O)c(O)c2)[C@@H](OC(=O)c2cc(O)c(O)c(O)c2)[C@@H]1OC(=O)c1cc(O)c(O)c(O)c1)c1cc(O)c(O)c(O)c1` [PGG, 1,2,3,4,6-Penta-O-galloyl-β-D-glucopyranose], for which the IC50 against COX-2 [1] worked out at 220 µM. Also, in the series with RAW264.7 cells (mouse), the “Concentration exhibiting no cytotoxicity” value is no more than 150 µM. The compound `O=C(OC[C@H]1O[C@@H](OC(=O)c2cc(O)c(O)c(O)c2)[C@H](OC(=O)c2cc(O)c(O)c(O)c2)[C@@H](OC(=O)c2cc(O)c(O)c(O)c2)[C@@H]1O)c1cc(O)c(O)c(O)c1` [TGG, 1,2,3,6-Tetra-O-galloyl-β-D-glucose] returned an IC50 on COX-2 [1] of 1.04 µM. The “Concentration exhibiting no cytotoxicity” value in the series on RAW264.7 cells (MTT) is no more than 20 µM.

Consider `Nc1ncnc2c1ncn2[C@@H]1O[C@H](CO)[C@@H](O)[C@H]1O` [adenosine, Adenosine], for which the “Response value (HPLC peak) in active enzyme group compared with inactivated enzyme control group” value at COX-2 [2] is on record as “no evident change”.
